Patent publication US20090023666A1, “Modulators of Hypoxia Inducible Factor-1 and Related Uses” (priority 2006, published 2009)
Read-outs that look alike come from different tables or passages of the source.

How the values were obtained:
[1] = tested on: MCF-7; assay: Anti-proliferative activity, MCF-7; type: cell-based; conditions: Homo sapiens
Procedure: (§1) FIG. 8 is a graph depicting the mRNA levels of α-1 and α-3 isoforms quantitated by real time RT-PCR (TaqMan) using fluorescent labeled TaqMan probes. Anti-proliferation (IC50 values) activity of BNC4 on indicated cell lines was determined by MTS assay. Total alpha levels (al+a3) were plotted against (1/IC50) X100 values.

[2] = tested on: 786-O; assay: Anti-proliferative activity, 786-O; type: cell-based; conditions: Homo sapiens
Procedure: as §1

[3] = tested on: VEGF; assay: Hypoxia induced VEGF secretion (ELISA); type: cell-based; conditions: hypoxic conditions, Hep3B, Caki-1 16 hours (FIG. 6)
Procedure: FIG. 6 is two graphs depicting the effect of BP228 and BP244 on secretion of VEGF. Caki-1 cells were treated with indicated compound and cultured under hypoxia for 16 hours. VEGF levels in conditioned medium were measured using an ELISA kit.
The decrease in HIF-1 correlated closely with declining levels of VEGF secretion. […] Caki-1 cells were treated with indicated compound and cultured under hypoxia for 16 hours. VEGF levels in conditioned medium were measured using an ELISA kit.

[4] = tested on: IGR-OV1; assay: Anti-proliferative activity, IGR-OV1; type: cell-based; conditions: Homo sapiens
Procedure: as §1

[5] = tested on: SNB-75; assay: Anti-proliferative activity, SNB-75; type: cell-based; conditions: Homo sapiens
Procedure: as §1

[6] = tested on: CCRF-CEM; assay: Anti-proliferative activity, CCRF-CEM; type: cell-based; conditions: Homo sapiens, read-out: Anti-Proliferative activity IC50
Procedure: as §1

[7] = tested on: Panc-1 (PANC); assay: Anti-proliferative activity (APA), Panc-1; type: cell-based; conditions: Homo sapiens
Procedure: as §1

[8] = tested on: tumor cell lines; assay: Anti-proliferative activity in tumor cell lines (panel); type: cell-based, human; conditions: for IC50: Homo sapiens, read-out: IC50 range over the tumor cell lines
Procedure: as §1

[9] = tested on: PC3; assay: Anti-proliferative activity, PC3; type: cell-based; conditions: Homo sapiens
Procedure: as §1

[10] = tested on: Panc-1 tumors; assay: In vivo activity against Panc-1 human pancreatic xenograft; design: species or system nude mice; conditions: SC, CI
Procedure: Panc-1 tumors were injected subcutaneously (sc) into the flanks of male nude mice. After the tumors reached 60 mg in size, osmotic pumps (model 2002, Alzet Inc., flow rate 0.5 μl/hr) containing 15 mg/ml of BP244 were implanted sc on the opposite sides of the mice. The control animals received pumps containing vehicle (10% captisol, Cyclex Inc.). The mice treated with standard chemotherapy agent received intra-peritoneal injections of Gemcitabine at 40 mg/kg every 3 days for 4 treatments (q3d×4). The experiment was terminated when the control group tumor size reached an average of about 1 gram. Upon termination, the mice were weighed, sacrificed and their tumors excised. The tumors were weighed and the mean tumor weight per group was calculated.
A titration experiment was first performed on BP244 to determine its minimum effective dose against Panc-1 human pancreatic xenograft in nude mice. BP244 (sc, osmotic pumps) was first tested at 15, 10 and 5 mg/ml using Alzet pumps as in previous experiments. Gemcitabine (40 mg/kg; q3d×4, i.p.) was also included in the experiment as a comparison. […]

[11] = tested on: DU145; assay: Anti-proliferative activity, DU145; type: cell-based; conditions: Homo sapiens
Procedure: as §1

[12] = tested on: C33A; assay: Anti-proliferative activity, C33A; type: cell-based; conditions: Homo sapiens, C-33-A, read-out: Anti-Proliferative activity IC50
Procedure: as §1

[13] = tested on: MES-SA; assay: Anti-proliferative activity, MES-SA; type: cell-based; conditions: Homo sapiens, read-out: Anti-Proliferative activity IC50
Procedure: as §1

[14] = tested on: LnCaP; assay: Anti-proliferative activity, LnCaP; type: cell-based; conditions: Homo sapiens, read-out: Anti-Proliferative activity IC50
Procedure: as §1

[15] = tested on: MES-SA-DX5; assay: Anti-proliferative activity, MES-SA-DX5; type: cell-based; conditions: Homo sapiens
Procedure: as §1

[16] = Pharmacokinetics following IP administration in mice; type: in vivo; conditions: for tlast / Tmax: i.p.; for half-life: read-out: t1/2 (terminal elimination half-life) (converted)
Procedure: FIG. 13 is a graph depicting the pharmacokinetic profiled of BNC4, BP228 and BP244 in mice. The compounds were administered by intraperitoneal (i.p) injection at 2.5 mg/kg and 5.0 mg/kg for BP228 and at 5.0 mg/kg for BNC4 and BP244. The plasma samples were collected at various time points and concentration of compounds was analyzed by LC-MS. Pharmacokinetic parameters are provided in Example 23.
The compounds were administered by intraperitoneal (i.p) injection at 2.5 mg/kg and 5.0 mg/kg for BP228 and at 5.0 mg/kg for BNC4 and BP244. The plasma samples were collected at various time points and concentration of compounds was analyzed by LC-MS.

[17] = tested on: HCT116; assay: Anti-proliferative activity, HCT116; type: cell-based; conditions: Homo sapiens
Procedure: as §1

[18] = tested on: HT29; assay: Anti-proliferative activity, HT29; type: cell-based; conditions: Homo sapiens
Procedure: as §1

[19] = MCF7, read-out: Anti-Proliferative activity IC50
[20] = 786-0, read-out: Anti-Proliferative activity IC50
[21] = IGROV-1, read-out: Anti-Proliferative activity IC50
[22] = SNB-75, read-out: Anti-Proliferative activity IC50
[23] = PANC-1, read-out: Anti-Proliferative activity IC50
[24] = PC-3, read-out: Anti-Proliferative activity IC50
[25] = DU-145, read-out: Anti-Proliferative activity IC50
[26] = MES-SA/Dx5, read-out: Anti-Proliferative activity IC50
[27] = mouse, plasma, ip, 5 mg/kg, 5 mg/kg, read-out: tmax
[28] = HCT-116, read-out: Anti-Proliferative activity IC50
[29] = HT-29, read-out: Anti-Proliferative activity IC50

SMILES	IC50 [1, 19] [nM]	IC50 [2, 20] [nM]	VEGF secretion [3]	IC50 [4, 21] [nM]	IC50 [5, 22] [nM]	IC50 [6] [nM]	IC50 [7, 23] [nM]	IC50 [8] [nM]	IC50 [9, 24] [nM]	% TGI (d24) ([10]; 10 mg/ml) [%]	% Wt Change (d24) ([10]; 10 mg/ml) [%]	Av. Tumor Weight ([10]; 10 mg/ml) [mg]	% TGI (d24) ([10]; 15 mg/ml) [%]	% Wt Change (d24) ([10]; 15 mg/ml) [%]	Av. Tumor Weight ([10]; 15 mg/ml) [mg]	tlast ([16]; 5 mg/kg) [h]	AUC ([16]; mouse, plasma, ip, 5 mg/kg) [ng·h/mL]	Cmax ([16]; mouse, plasma, ip, 5 mg/kg) [ng/mL]	Tmax [16, 27] [min]	half-life ([16]; mouse, plasma, ip, 5 mg/kg) [min]	other results
C[C@]12CC/C(=N\OCCN3CCCCC3)C=C1CC[C@@H]1[C@@H]2CC[C@]2(C)[C@@H](c3ccc(=O)oc3)CC[C@]12O [BP228]	19.8	8.9	Attenuate Hypoxia Induced VEGF Secretion	31.9	19.2	7	8.1	640	6.2	66	1.97	488.0	79	4.88	327.0	6	2350	1200	4.98	114	IC50 [11, 25]: 8.8 nM; IC50 [12]: 7.2 nM; IC50 [13]: 11.4 nM; IC50 ([14]; LNCaP): 39.2 nM; IC50 [15, 26]: 15.8 nM; tlast ([16]; 2.5 mg/kg): 6 h; Tmax ([16]; 5 mg/kg, listed as BNC228, 5 mg/kg): 5 min; AUC ([16]; mouse, plasma, ip, 2.5 mg/kg): 1020 ng·h/mL; Cmax ([16]; mouse, plasma, ip, 2.5 mg/kg): 715 ng/mL; Tmax ([16]; mouse, plasma, ip, 2.5 mg/kg, 2.5 mg/kg, read-out: tmax): 10 min; half-life ([16]; mouse, plasma, ip, 2.5 mg/kg): 90 min; IC50 [17, 28]: 6.4 nM; IC50 [18, 29]: 18.9 nM
C[C@@H]1O[C@@H](O[C@@H]2C=C3CC[C@@H]4[C@H](CC[C@]5(C)[C@@H](c6ccc(=O)oc6)CC[C@]45O)[C@@]3(C)CC2)[C@H](O)[C@H](O)[C@H]1N [BP244]	8.2	8	reduce VEGF secretion	12.1	12.9	4.7	6.6	5 to 14	5.7	98	0.93	107.3	102	5.26	44.2	24	4630	2120	30	270	% TGI (d24) ([10]; 5 mg/ml): 71%; % Wt Change (d24) ([10]; 5 mg/ml): −4.63%; Av. Tumor Weight ([10]; 5 mg/ml): 524.4 mg; IC50 [11, 25]: 6.7 nM; IC50 [12]: 5.1 nM; IC50 [13]: 8 nM; IC50 ([14]; LNCaP): 13.8 nM; IC50 [15, 26]: 13.5 nM; IC50 [17, 28]: 5.1 nM; IC50 [18, 29]: 8.2 nM
C[C@@H]1O[C@@H](O[C@@H]2C=C3CC[C@@H]4[C@H](CC[C@]5(C)[C@@H](c6ccc(=O)oc6)CC[C@]45O)[C@@]3(C)CC2)[C@H](O)[C@H](O)[C@H]1O [BNC4, proscillaridin, reference compound]			reduce VEGF secretion										87	−2.69	243.9	6	4570	3610	15	48	IC50 ([1]; MCF7, MCF-7, Breast (ER+), read-out: Anti-Proliferative activity IC50): 8.4 nM; IC50 ([2]; 786-0, 786-O, Renal, read-out: Anti-Proliferative activity IC50): 8.4 nM; IC50 ([4]; IGROV-1, IGR-OV1, Ovarian, read-out: Anti-Proliferative activity IC50): 12.3 nM; IC50 ([5]; SNB-75, CNS, read-out: Anti-Proliferative activity IC50): 16.8 nM; IC50 ([6]; Leukemia): 6.3 nM; IC50 ([7]; PANC-1, PANC, Pancreatic, read-out: Anti-Proliferative activity IC50): 3.8 nM; IC50 ([8]; range over cell lines of Table 2): 418 nM; sensitivity of cell lines expressing very low levels of α-chain ([8]; SNB75 and RPMI-8226 compared with A549 or PC-3, MTS assay): very resistant; IC50 ([9]; PC-3, PC3, Prostate, read-out: Anti-Proliferative activity IC50): 4.1 nM; IC50 ([11]; DU-145, DU145, Prostate (AR-), read-out: Anti-Proliferative activity IC50): 6.2 nM; IC50 ([12]; C33A, Cervical): 13.6 nM; IC50 ([13]; Uterine): 8.7 nM; IC50 ([14]; LnCaP, Prostate): 16.7 nM; IC50 ([15]; MES-SA-DX5, Uterine, read-out: Anti-Proliferative activity IC50): 11.6 nM; IC50 ([17]; HCT-116, HCT116, Colon, read-out: Anti-Proliferative activity IC50): 8.1 nM; IC50 ([18]; HT-29, HT29, Colon, read-out: Anti-Proliferative activity IC50): 8.9 nM
